These results are taken from publication PMC6150365, “Simultaneous Determination of Seven Components in Rat Plasma by the UPLC-MS/MS Method and Application of Pharmacokinetic Studies to SimiaoYong’an Decoction” (Molecules : A Journal of Synthetic Chemistry and Natural …, 2017).

The series can be described thus: in vivo. The following applies: male, Sprague-Dawley, rat, po; for MRT last: MRT(0–t); for MRT inf: MRT(0–∞); for half-life: t1/2.

Method: Pieces of LJ, SN, AS and GU were weighed according to the proportion of 3:3:2:1 with appropriate amounts. The mixed pieces were crushed and decocted two times (60 min each time) with water (1:10 w/v) after being soaked for 60 min. The decoctions were then combined and condensed to the concentration of 0.5 g/mL, after which 95% ethanol was slowly added to the concentrate until a final ethanol concentration of 70% was reached. The SYD solution was set at room temperature overnight and then was filtered. The solvent was recovered, and the residue was dried under reduced pressure. A certain amount of the water extract of SYD was weighed and then dissolved with purified water for intragastric (oral) administration solution. The single herbs and different combination groups such as LJ, SN, AS, GU, LJ + SN, LJ + AS, LJ + GU, SN + AS, SN + GU, AS + GU, LJ + SN + AS, LJ + SN + GU, LJ + AS + GU and SN + AS + GU were prepared according to the procedure of SYD.
Male Sprague-Dawley (SD) rats (body weight 250 ± 10 g) were supplied by the SPF (Beijing) Biotechnology Co., Ltd. (Certificate No.: SCXK 2016-0002, Beijing, China). The animals were maintained in controlled conditions (temperature 20–25 °C, relative humidity 55–60% and 12-h light/12-h dark cycle) with free access to standard laboratory food and water for seven days of acclimation and then fasted for 12 h before each experiment but allowed to drink freely during this time.
Ninety male SD rats were randomly separated into 15 groups and administered a dosage of extract via gastric gavage once per day; detailed information about the oral daily dose of SYD extract and the corresponding single and combined TCMs (LJ, SN, AS, GU, LJ + SN, LJ + AS, LJ + GU, SN + AS, SN + GU, AS + GU, LJ + SN + AS, LJ + SN + GU, LJ + AS + GU, SN + AS + GU and SYD) is listed in Table 4.
Each plasma sample (200 μL) with 50 μL IS solution added was spiked into 100 μL 1% formic acid distilled water solution and then vortexed for 1 min. Protein was precipitated by adding 600 μL of methanol to the mixture. After being vortexed and sonicated, the samples were centrifuged at 25,000 r/min, 4 °C for 10 min. The supernatant of each sample was transferred to a new 2-mL centrifuge tube and evaporated to dryness by N2 at 40 °C. Finally, the residue was dissolved in 100 μL methanol–water (1:1, v/v), followed by centrifugation at 30,000 r/min, 4 °C for 10 min, and 10-μL supernatant aliquots were injected into the UPLC-MS/MS system for analysis.
The SYD was decomposed into 15 groups of compatibility combinations (LJ, SN, AS, GU, LJ + SN, LJ + AS, LJ + GU, SN + AS, SN + GU, AS + GU, LJ + SN + AS, LJ + SN + GU, LJ + AS + GU, SN + AS + GU and SYD). The 15 combinations were weighed according to the proportion of 3:3:2:1 with appropriate amounts and prepared by the method described in “Section 3.2”. Six male SD rats (body weight 250 ± 10 g) of each compatibility group were used in the pharmacokinetic study. After 12-h fast, rats of the different groups were orally administered the respective extract dissolved in saline (Table 4). Venous blood (0.45 mL) was obtained from the orbit vein and collected in heparin-pretreated polypropylene centrifuge tubes at 0.083 h, 0.17 h, 0.25 h, 0.50 h, 0.75 h, 1.0 h, 1.5 h, 2.0 h, 3.0 h, 4.0 h, 6.0 h, 8.0, 12 h and 24 h post-dose. The plasma was separated by centrifugation at 8000 r/min for 10 min and then stored at −20 °C until analysis. The amount of each analyte in the plasma was estimated by UPLC-MS/MS analysis as described in Section 3.5.
Non-compartmental methods using Phoenix WinNonlin 7.0 software provided by the Beijing University of Chinese Medicine were used to analyze plasma concentration versus time profiles and to estimate the following pharmacokinetic parameters: terminal elimination half-lives (t1/2), area under the plasma concentration versus time curve from zero to last sampling time (AUC), and the mean residence time (MRT).

With `C=C[C@H]1[C@H](O[C@@H]2O[C@H](CO)[C@@H](O)[C@H](O)[C@H]2O)OC=C2C(=O)OCC[C@H]21` [Sweroside, sweroside], where the note is “2.15 g/kg”, the AUC(0-t) (commonly exposure summed from dosing to a finite time, without extrapolation to infinity) was determined as 6.9 ± 2.66 µg·h/mL; the area under the curve AUC(0-inf) – broadly, the area under the concentration-time curve extrapolated to infinity – stood at 7.86 ± 4.08 µg·h/mL; the maximum concentration (Cmax) – broadly, the peak of the concentration-time curve – came to 2.92 ± 1.77 µg/mL; the mean residence time MRT last (in general, the average time that molecules of a dose stay in the body) worked out at 4.46 ± 1.2 h. Also, under “2.15 g/kg”, the mean residence time MRT inf (as a rule, the average time that molecules of a dose stay in the body) is 7.5 ± 5.21 h; the Tmax (usually the time at which the peak concentration occurs) was 0.96 ± 0.58 h; the half-life (as a rule, how long it takes for the measured level to halve) is 7.39 ± 6.33 h. For the setting “8.25 g/kg”, this compound gave an exposure AUC(0-t) of 4.49 ± 0.28 µg·h/mL, a total exposure AUC(0-inf) of 4.53 ± 0.29 µg·h/mL, a Cmax of 1.97 ± 0.7 µg/mL and an MRT last of 3.3 ± 0.39 h. In addition, for the setting “8.25 g/kg”, the MRT inf was 3.53 ± 0.29 h, the time to peak (Tmax) is 1.33 ± 0.49 h and the half-life was 4.14 ± 1.46 h.
